# Test results taken from ChEMBL document CHEMBL4130363, “Synthesis and pharmacological evaluation of benzamide derivatives as potent and selective sigma-1 protein ligands” (Eur J Med Chem, 2017).
# Tests used:
# [1] = molecular target: T1, Adenosine receptor A3 (Homo sapiens) (UniProt P0DMS8); assay: Antagonist activity at recombinant human adenosine A3 receptor assessed as inhibition of agonist-induced cAMP induction at 10 uM by HTRF assay; type: functional
# T1 sequence (whole entry): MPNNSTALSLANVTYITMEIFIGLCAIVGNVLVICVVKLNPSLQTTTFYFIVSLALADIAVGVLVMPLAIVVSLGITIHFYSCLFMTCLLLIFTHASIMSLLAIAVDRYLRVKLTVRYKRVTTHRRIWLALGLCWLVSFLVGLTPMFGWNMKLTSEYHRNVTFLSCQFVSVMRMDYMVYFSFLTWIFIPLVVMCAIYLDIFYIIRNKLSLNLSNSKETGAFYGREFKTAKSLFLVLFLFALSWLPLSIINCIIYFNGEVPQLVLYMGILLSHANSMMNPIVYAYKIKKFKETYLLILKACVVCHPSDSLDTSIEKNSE
# [2] = molecular target: T2, Type-1 angiotensin II receptor (Homo sapiens) (UniProt P30556); assay: Antagonist activity at recombinant human AT1 receptor assessed as inhibition of agonist-induced […] reporter based assay; type: functional
# T2 sequence (whole entry): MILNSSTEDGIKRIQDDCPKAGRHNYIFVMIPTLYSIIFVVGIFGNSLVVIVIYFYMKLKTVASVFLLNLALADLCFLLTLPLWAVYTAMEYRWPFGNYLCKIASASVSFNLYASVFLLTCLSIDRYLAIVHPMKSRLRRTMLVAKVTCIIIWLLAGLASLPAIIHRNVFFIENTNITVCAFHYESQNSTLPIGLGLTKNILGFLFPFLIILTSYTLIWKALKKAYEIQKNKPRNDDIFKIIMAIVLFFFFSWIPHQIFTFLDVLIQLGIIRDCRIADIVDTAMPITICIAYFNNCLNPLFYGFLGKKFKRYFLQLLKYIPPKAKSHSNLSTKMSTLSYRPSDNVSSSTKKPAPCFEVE
# [3] = molecular target: T3, Endothelin-1 receptor (Homo sapiens) (UniProt P25101); assay: Antagonist activity at recombinant human ETA receptor assessed as inhibition of agonist induced effect at 10 uM by aequorin reporter based assay; type: functional
# T3 sequence (whole entry): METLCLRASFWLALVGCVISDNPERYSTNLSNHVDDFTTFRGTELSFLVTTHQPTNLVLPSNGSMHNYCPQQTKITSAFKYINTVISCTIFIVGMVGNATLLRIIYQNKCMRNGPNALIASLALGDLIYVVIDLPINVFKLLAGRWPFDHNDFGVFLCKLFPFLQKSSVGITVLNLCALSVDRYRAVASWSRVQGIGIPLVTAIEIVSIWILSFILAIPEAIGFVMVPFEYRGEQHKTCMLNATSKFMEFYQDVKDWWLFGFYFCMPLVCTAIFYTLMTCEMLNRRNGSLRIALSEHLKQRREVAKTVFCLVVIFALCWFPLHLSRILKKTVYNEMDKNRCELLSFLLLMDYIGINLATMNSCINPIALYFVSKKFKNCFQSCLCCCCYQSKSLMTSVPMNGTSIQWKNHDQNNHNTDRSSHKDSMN
# [4] = molecular target: Glutamate [NMDA] receptor (Homo sapiens) (UniProt Q05586+Q12879+Q13224+O15399+O60391+Q14957+Q8TCU5); assay: Antagonist activity at recombinant human NMDA receptor assessed as inhibition of agonist-induced cAMP levels at 10 uM; type: protein-complex assay
# [5] = molecular target: T4, Neuropeptide Y receptor type 1 (Homo sapiens) (UniProt P25929); assay: Antagonist activity at recombinant human NPY1R assessed as inhibition of agonist-induced cAMP levels at 10 uM by HTRF assay; type: functional
# T4 sequence (whole entry): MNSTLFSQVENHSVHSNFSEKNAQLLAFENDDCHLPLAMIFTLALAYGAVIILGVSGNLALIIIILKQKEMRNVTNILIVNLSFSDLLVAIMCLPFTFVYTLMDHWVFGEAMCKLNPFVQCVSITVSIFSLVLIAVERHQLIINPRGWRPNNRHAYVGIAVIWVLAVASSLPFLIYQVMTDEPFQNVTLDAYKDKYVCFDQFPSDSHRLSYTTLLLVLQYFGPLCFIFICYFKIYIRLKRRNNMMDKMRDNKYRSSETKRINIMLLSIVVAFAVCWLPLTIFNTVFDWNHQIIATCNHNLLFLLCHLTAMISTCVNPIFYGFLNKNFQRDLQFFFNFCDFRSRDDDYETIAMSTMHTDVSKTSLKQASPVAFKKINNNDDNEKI
# [6] = molecular target: Delta-type opioid receptor (Homo sapiens) (UniProt P41143); assay: Antagonist activity at human delta-type opioid receptor assessed as inhibition of agonist-induced effect at 10 uM by GTPgamma[35S] binding-based assay; type: functional
# Sequence of Delta-type opioid receptor (Homo sapiens) (P41143 whole entry): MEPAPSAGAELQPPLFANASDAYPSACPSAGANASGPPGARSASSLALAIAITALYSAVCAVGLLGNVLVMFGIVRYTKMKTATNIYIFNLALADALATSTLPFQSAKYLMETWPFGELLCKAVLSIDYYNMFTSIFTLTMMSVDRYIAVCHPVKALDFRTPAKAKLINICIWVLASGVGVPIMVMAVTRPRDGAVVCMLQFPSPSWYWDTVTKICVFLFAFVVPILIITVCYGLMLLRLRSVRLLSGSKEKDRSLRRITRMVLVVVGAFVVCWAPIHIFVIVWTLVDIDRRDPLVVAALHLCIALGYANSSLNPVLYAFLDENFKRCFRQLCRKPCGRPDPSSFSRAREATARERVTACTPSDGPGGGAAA
# [7] = molecular target: Mu-type opioid receptor (Homo sapiens) (UniProt P35372); assay: Antagonist activity at human mu-type opioid receptor assessed as inhibition of agonist-induced effect at 10 uM by GTPgamma[35S] binding-based assay; type: functional
# Sequence of Mu-type opioid receptor (Homo sapiens) (P35372 whole entry): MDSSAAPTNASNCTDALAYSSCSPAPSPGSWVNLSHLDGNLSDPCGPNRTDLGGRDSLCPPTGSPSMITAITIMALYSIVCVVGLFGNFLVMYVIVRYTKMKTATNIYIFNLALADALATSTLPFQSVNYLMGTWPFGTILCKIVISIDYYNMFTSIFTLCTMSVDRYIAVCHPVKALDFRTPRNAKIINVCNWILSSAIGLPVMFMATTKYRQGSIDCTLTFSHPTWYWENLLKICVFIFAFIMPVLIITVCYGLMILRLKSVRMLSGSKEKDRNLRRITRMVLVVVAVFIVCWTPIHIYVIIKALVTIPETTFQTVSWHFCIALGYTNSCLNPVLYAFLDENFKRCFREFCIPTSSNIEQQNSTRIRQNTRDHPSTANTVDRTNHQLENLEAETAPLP
# [8] = molecular target: Vasopressin V1a receptor (Homo sapiens) (UniProt P37288); assay: Antagonist activity at recombinant human V1A receptor assessed as inhibition of agonist-induced effect at 10 uM by aequorin reporter based assay; type: functional
# Sequence of Vasopressin V1a receptor (Homo sapiens) (P37288 whole entry, looked up): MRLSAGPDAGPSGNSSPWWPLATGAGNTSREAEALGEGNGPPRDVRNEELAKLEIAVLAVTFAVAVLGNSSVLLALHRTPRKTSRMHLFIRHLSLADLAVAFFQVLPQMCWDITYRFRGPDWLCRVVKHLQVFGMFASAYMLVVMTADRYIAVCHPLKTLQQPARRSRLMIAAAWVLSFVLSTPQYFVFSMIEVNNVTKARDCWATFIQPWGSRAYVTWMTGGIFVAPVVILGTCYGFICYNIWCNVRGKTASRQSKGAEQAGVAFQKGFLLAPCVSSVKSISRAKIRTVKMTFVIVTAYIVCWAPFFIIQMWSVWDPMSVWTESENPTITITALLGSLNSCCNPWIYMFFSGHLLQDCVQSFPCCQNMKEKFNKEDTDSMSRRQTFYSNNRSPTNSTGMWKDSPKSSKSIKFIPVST
# [9] = molecular target: T5, Vasoactive intestinal polypeptide receptor 1 (Homo sapiens) (UniProt P32241); assay: Antagonist activity at recombinant human VPAC1 receptor assessed as inhibition of agonist-induced effect at 10 uM by aequorin reporter based assay; type: functional
# T5 sequence (whole entry): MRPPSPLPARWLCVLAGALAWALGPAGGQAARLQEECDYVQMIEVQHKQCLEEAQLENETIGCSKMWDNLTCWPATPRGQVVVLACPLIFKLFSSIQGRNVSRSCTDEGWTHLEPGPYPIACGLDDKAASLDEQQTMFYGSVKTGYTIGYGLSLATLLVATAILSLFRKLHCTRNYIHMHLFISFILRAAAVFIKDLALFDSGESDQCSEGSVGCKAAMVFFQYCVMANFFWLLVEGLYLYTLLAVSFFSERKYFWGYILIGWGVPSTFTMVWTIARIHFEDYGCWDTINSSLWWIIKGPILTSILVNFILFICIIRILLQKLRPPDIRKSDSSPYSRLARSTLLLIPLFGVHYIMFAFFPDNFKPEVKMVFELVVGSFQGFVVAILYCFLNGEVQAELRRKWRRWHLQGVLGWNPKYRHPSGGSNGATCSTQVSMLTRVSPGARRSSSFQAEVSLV
# [10] = tested on: SH-SY5Y; assay: Cytotoxicity against human SH-SY5Y cells assessed as reduction in cell viability after 72 hrs by MTT assay; type: cell-based
# [11] = tested on: S1R (sigma-1 receptor); assay: Selectivity index, ratio of IC50 for human SH-SY5Y cells to Ki for S1R in human Jurkat cell membranes; type: toxicity, cell-based
SMILES,inhibition [1],inhibition [2],inhibition [3],inhibition [4],inhibition [5],inhibition [6],inhibition [7],inhibition [8],inhibition [9],IC50 [10],selectivity ratio [11]
CN(CCCNC(=O)c1ccc([N+](=O)[O-])cc1)Cc1ccccc1,-7%,17%,0%,12%,6%,5%,-6%,6%,0%,–,–
CN(CCNC(=O)c1ccc([N+](=O)[O-])cc1)Cc1ccccc1,5%,–,–,3%,-1%,8%,15%,6%,22%,> 100 µM,> 27800
CN(CCNC(=O)c1ccc(C#N)cc1)Cc1ccccc1,-6%,–,6%,1%,-2%,0%,9%,9%,3%,> 100 µM,> 83300
CN(CCCNC(=O)c1ccc(Cl)cc1)CCc1ccccc1,10%,11%,–,16%,-1%,6%,9%,36%,17%,> 100 µM,> 23300
CN(CCCNC(=O)c1ccc(C(F)(F)F)cc1)Cc1ccccc1,18%,-2%,2%,14%,–,–,-1%,6%,31%,–,–
CCCc1ccc(C(=O)NCCCN(C)Cc2ccccc2)cc1,8%,-6%,–,15%,-7%,-5%,-4%,11%,0%,–,–
CN(CCNC(=O)c1ccc(Cl)cc1)Cc1ccccc1,-1%,21%,-9%,4%,-1%,18%,–,18%,30%,> 100 µM,> 27800

# Second part, led by results:
inhibition [1],inhibition [2],inhibition [3],inhibition [4],inhibition [5],inhibition [6],inhibition [7],inhibition [8],inhibition [9],SMILES,IC50 [10],selectivity ratio [11]
–,20%,5%,0%,3%,–,20%,3%,1%,COc1cccc(C(=O)NCCCN(C)Cc2ccccc2)c1,–,–
–,7%,-9%,5%,-5%,7%,29%,14%,31%,CN(CCCNC(=O)c1cccc(Br)c1)Cc1ccccc1,> 100 µM,> 25600
24%,–,–,5%,-3%,-5%,-9%,0%,4%,CN(CCCNC(=O)c1ccc(Br)cc1)Cc1ccccc1,–,–
16%,-3%,-5%,8%,-4%,9%,8%,–,7%,CN(CCCNC(=O)c1ccc(Cl)cc1)Cc1ccccc1,> 100 µM,> 31200
12%,-10%,-1%,–,1%,-2%,20%,-9%,–,COc1ccc(C(=O)NCCCN(C)Cc2ccccc2)cc1,–,–
